For 24 compounds, IC50 results are on record in patent US9718788B2, “Heteroaryl compounds useful as inhibitors of E1 activating enzymes” (MILLENNIUM PHARMACEUTICALS, INC., priority 2006, dated 2017).

SMILES strings stand for the structures.

For this experiment, the target named is T1, recombinant human NAE enzyme (Homo sapiens, UniProt Q8TBC4).
T1 construct: His (N); made in house; host or cells: Sf9 insect cells (baculovirus, Bac-to-Bac)
T1 sequence (Q8TBC4 1-463): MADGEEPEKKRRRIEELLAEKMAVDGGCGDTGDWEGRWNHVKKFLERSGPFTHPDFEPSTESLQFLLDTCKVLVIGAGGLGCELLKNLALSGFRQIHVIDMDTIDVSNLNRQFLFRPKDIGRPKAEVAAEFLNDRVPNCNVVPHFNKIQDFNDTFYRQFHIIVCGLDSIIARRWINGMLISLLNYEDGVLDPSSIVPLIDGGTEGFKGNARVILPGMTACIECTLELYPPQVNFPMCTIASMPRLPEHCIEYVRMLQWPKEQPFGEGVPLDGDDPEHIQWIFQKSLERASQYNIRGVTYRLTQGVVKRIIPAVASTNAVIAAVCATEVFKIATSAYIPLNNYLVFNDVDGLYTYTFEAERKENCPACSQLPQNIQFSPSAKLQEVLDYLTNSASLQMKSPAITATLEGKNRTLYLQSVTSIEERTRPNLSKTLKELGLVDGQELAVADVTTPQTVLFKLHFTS
T1 sequence (Q13564 1-534 partner): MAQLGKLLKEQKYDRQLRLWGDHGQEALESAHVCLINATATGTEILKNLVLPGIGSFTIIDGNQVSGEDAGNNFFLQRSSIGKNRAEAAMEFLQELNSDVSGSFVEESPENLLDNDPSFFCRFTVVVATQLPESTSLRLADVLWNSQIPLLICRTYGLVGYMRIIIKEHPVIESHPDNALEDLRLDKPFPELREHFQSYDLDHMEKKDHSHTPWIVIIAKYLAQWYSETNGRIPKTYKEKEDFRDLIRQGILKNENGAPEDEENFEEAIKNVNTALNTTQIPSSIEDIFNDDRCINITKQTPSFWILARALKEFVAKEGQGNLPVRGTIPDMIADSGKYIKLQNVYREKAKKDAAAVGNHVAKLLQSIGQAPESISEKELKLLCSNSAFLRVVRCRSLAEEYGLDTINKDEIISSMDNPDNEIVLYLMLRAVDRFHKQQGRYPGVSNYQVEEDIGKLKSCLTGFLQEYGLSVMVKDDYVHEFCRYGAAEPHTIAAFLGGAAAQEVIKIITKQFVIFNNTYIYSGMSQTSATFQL
Put plainly: Nedd8-Activating Enzyme (NAE) HTRF Assay. The class given is biochemical. As to conditions: 20 μM ATP. The essentials:
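Recombinant human NAE (NAEα/His-NAEβ from Sf9 cells) at 0.20 nM with 20 μM ATP, 0.01 μM Ubc12-GST and 0.075 μM Nedd8-Flag in HEPES pH 7.5, 105 min at 24° C. EDTA stop; Eu-anti-FLAG/APC-anti-GST HTRF read after 1 h.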

Broadly, the IC50 is the concentration needed to halve the response being measured. For `NS(=O)(=O)OC[C@@H]1C[C@@H](Cc2cc(N[C@H]3CCc4ccccc43)ncn2)C[C@@H]1O` [Compound I-33, [(1S,2S,4S)-4-({6-[(1S)-2,3-dihydro-1H-inden-1-ylamino]pyrimidin-4-yl}methyl)-2-hydroxycyclopentyl]methyl sulfamate], the half-maximal inhibitory concentration (IC50) is > 500 nM (bound given in nM) and < 10000 nM (bound given in μM).

In the case of `NS(=O)(=O)OC[C@@H]1C[C@@H](Oc2cc(N3CCc4ccccc4C3)ncn2)C[C@@H]1O` [Compound I-61, ((1S,2S,4R)-4-{[6-(3,4-dihydroisoquinolin-2(1H)-yl)pyrimidin-4-yl]oxy}-2-hydroxycyclopentyl)methyl sulfamate], the IC50 (bound given in μM) was > 10000 nM.

With `OC[C@@H]1C[C@@H](Nc2ncnc3[nH]c(-c4cccc5c4CCCC5)nc23)C[C@@H]1O` [Compound I-110, (1S,2S,4R)-2-(hydroxymethyl)-4-{[8-(5,6,7,8-tetrahydronaphthalen-1-yl)-9H-purin-6-yl]-amino}cyclopentanol], the IC50 reads like this: (bound given in nM) > 500 nM; (bound given in μM) < 10000 nM.

In the case of `NS(=O)(=O)OC[C@@H]1C[C@@H](Nc2cc(N[C@H]3CCc4ccccc43)ncn2)[C@H](O)[C@@H]1O` [Compound I-11, [(1S,2R,3S,4R)-4-({6-[(1S)-2,3-dihydro-1H-inden-1-ylamino]pyrimidin-4-yl}-amino)-2,3-dihydroxycyclopentyl]methyl sulfamate], the IC50 (bound given in nM) was ≤ 500 nM.

Turning to `CN(c1ncnc2[nH]c(-c3cccc4ccccc34)nc12)[C@@H]1C[C@@H](COS(N)(=O)=O)[C@@H](O)C1` [Compound I-46, ((1S,2S,4R)-2-hydroxy-4-{methyl[8-(1-naphthyl)-9H-purin-6-yl]amino}-cyclopentyl)methyl sulfamate], the IC50 (bound given in nM) is ≤ 500 nM.

`CO[C@H]1Cc2ccccc2[C@H]1Nc1ncnc(N[C@@H]2C[C@@H](COS(N)(=O)=O)[C@@H](O)C2)n1` [Compound I-125, {(1S,2S,4R)-2-hydroxy-4-[(4-{[(1R,2S)-2-methoxy-2,3-dihydro-1H-inden-1-yl]amino}-1,3,5-triazin-2-yl)amino]cyclopentyl}methyl sulfamate]: where the note is “bound given in nM”, the IC50 is ≤ 500 nM.

Take `NS(=O)(=O)OC[C@@H]1C[C@@H](Nc2ncnc(N[C@H]3CCc4ccccc43)n2)C[C@@H]1O` [Compound I-153, [(1S,2S,4R)-4-({4-[(1S)-2,3-dihydro-1H-inden-1-ylamino}-1,3,5-triazin-2-yl}amino)-2-hydroxycyclopentyl]methyl sulfamate]: the IC50 (bound given in nM) is ≤ 500 nM.

As to `NS(=O)(=O)OC[C@@H]1C[C@@H](Oc2ncnc3nc(-c4ccnc5cc(Cl)ccc45)[nH]c23)C[C@@H]1O` [Compound I-73, ((1S,2S,4R)-4-{[8-(7-chloroquinolin-4-yl)-7H-purin-6-yl]oxy}-2-hydroxycyclopentyl)methyl sulfamate], the IC50 (bound given in nM) was ≤ 500 nM.

`CC1(C)C[C@H](Nc2cc(O[C@@H]3C[C@@H](COS(N)(=O)=O)[C@@H](O)C3)ncn2)c2ccccc21` [Compound I-124, {(1S,2S,4R)-4-[(6-{[(1S)-3,3-dimethyl-2,3-dihydro-1H-inden-1-yl]amino}pyrimidin-4-yl)oxy]-2-hydroxycyclopentyl}methyl sulfamate]: the IC50 (bound given in nM) was ≤ 500 nM.

Turning to `COc1cccc(-c2nc3c(N[C@@H]4C[C@@H](COS(N)(=O)=O)[C@@H](O)C4)ncnc3[nH]2)c1OC` [Compound I-67, ((1S,2S,4R)-4-{[8-(2,3-dimethoxyphenyl)-9H-purin-6-yl]amino}-2-hydroxycyclopentyl)methyl sulfamate], the IC50 (bound given in nM) is ≤ 500 nM.

On to `OC[C@@H]1C[C@@H](Nc2ncnc3[nH]c(-c4cccc5c4OCCO5)nc23)C[C@@H]1O` [Compound I-138, (1S,2S,4R)-4-{[8-(2,3-dihydro-1,4-benzodioxin-5-yl)-9H-purin-6-yl]amino}-2-(hydroxymethyl)cyclopentanol], for which the IC50 (bound given in nM) is > 500 nM and the IC50 (bound given in μM) is < 10000 nM.

On to `NS(=O)(=O)OC[C@@H]1C[C@@H](Nc2ncnc3[nH]c(-c4cccc(Cl)c4)nc23)C[C@@H]1O` [Compound I-60, ((1S,2S,4R)-4-{[8-(3-chlorophenyl)-9H-purin-6-yl]amino}-2-hydroxycyclopentyl)methyl sulfamate], for which the IC50 (bound given in nM) is ≤ 500 nM.

On to `NS(=O)(=O)OC[C@H]1C[C@@H](Nc2ccnc(C(=O)N[C@H]3CCc4ccccc43)c2)[C@H](O)[C@@H]1O` [Compound I-144, {(1R,2R,3S,4R)-4-[(2-{[(1S)-2,3-dihydro-1H-inden-1-ylamino]carbonyl}pyridin-4-yl)-amino]-2,3-dihydroxycyclopentyl}methyl sulfamate], for which the IC50 (bound given in μM) was > 10000 nM.

`CO[C@H]1Cc2ccccc2[C@H]1Nc1cc(O[C@@H]2C[C@@H](CNS(N)(=O)=O)[C@@H](O)C2)ncn1` [Compound I-82, N-({(1S,2S,4R)-2-hydroxy-4-[(6-{[(1R,2S)-2-methoxy-2,3-dihydro-1H-inden-1-yl]amino}pyrimidin-4-yl)oxy]cyclopentyl}methyl)sulfamide]: the IC50 (bound given in nM) was ≤ 500 nM.

As to `Cc1c(N[C@H]2CCc3ccccc32)ncnc1O[C@@H]1C[C@@H](COS(N)(=O)=O)[C@@H](O)C1` [Compound I-32, [(1S,2S,4R)-4-({6-[(1S)-2,3-dihydro-1H-inden-1-ylamino]-5-methylpyrimidin-4-yl}oxy)-2-hydroxycyclopentyl]methyl sulfamate], under “bound given in nM”, the IC50 is ≤ 500 nM.

Turning to `NS(=O)(=O)OC[C@@H]1C[C@@H](Nc2ncnc3nc(-c4ccc(OCc5ccccc5)cc4)[nH]c23)C[C@@H]1O` [Compound I-102, [(1S,2S,4R)-4-({8-[4-(benzyloxy)phenyl]-7H-purin-6-yl}amino)-2-hydroxycyclopentyl]methyl sulfamate], the IC50 (bound given in nM) was ≤ 500 nM.

With `Cc1nc(NCc2ccccc2)cc(N[C@@H]2C[C@H](COS(N)(=O)=O)[C@@H](O)[C@H]2O)n1` [Compound I-30, ((1R,2R,3S,4R)-4-{[6-(benzylamino)-2-methylpyrimidin-4-yl]amino}-2,3-dihydroxycyclopentyl)methyl sulfamate], the IC50 (bound given in μM) is > 10000 nM.

For `NS(=O)(=O)OC[C@@H]1C[C@@H](Oc2ncnc3nc(-c4cnn(Cc5ccccc5)c4)[nH]c23)C[C@@H]1O` [Compound I-129, ((1S,2S,4R)-4-{[8-(1-benzyl-1H-pyrazol-4-yl)-7H-purin-6-yl]oxy}-2-hydroxycyclopentyl)methyl sulfamate], under “bound given in nM”, the IC50 was ≤ 500 nM.

For `NS(=O)(=O)OC[C@H]1CC[C@H](Oc2ncnc3[nH]c(-c4cccc5ccccc45)nc23)C1` [Compound I-152, ((1S,3S)-3-{[8-(1-naphthyl)-9H-purin-6-yl]oxy}cyclopentyl)methyl sulfamate], the IC50 (bound given in nM) is > 500 nM and the IC50 (bound given in μM) is < 10000 nM.

As to `NS(=O)(=O)OC[C@@H]1C[C@@H](Oc2cc(N3Cc4ccccc4C3)ncn2)C[C@@H]1O` [Compound I-120, ((1S,2S,4R)-4-{[6-(1,3-dihydro-2H-isoindol-2-yl)pyrimidin-4-yl]oxy}-2-hydroxycyclopentyl)methyl sulfamate], the IC50 was > 500 nM (bound given in nM) and < 10000 nM (bound given in μM).

Take `COc1ccc2c(c1)[C@H](Nc1cc(O[C@@H]3C[C@@H](COS(N)(=O)=O)[C@@H](O)C3)ncn1)[C@H](OC)CC2` [Compound I-148, {(1S,2S,4R)-4-[(6-{[(1S,2R)-2,7-dimethoxy-1,2,3,4-tetrahydronaphthalen-1-yl]amino}-pyrimidin-4-yl)oxy]-2-hydroxycyclopentyl}methyl sulfamate]: the IC50 was > 500 nM (bound given in nM) and < 10000 nM (bound given in μM).

Take `NS(=O)(=O)OC[C@@H]1C[C@@H](Nc2ncnc3oc(-c4ccccc4)nc23)C[C@@H]1O` [Compound I-90, {(1S,2S,4R)-2-hydroxy-4-[(2-phenyl[1,3]oxazolo[5,4-d]pyrimidin-7-yl)amino]cyclopentyl}methyl sulfamate]: the IC50 (bound given in nM) is ≤ 500 nM.

As to `NS(=O)(=O)OC[C@H]1C[C@@H](Nc2ccnc(NCC3CCCCC3)n2)[C@H](O)[C@@H]1O` [Compound I-4, [(1R,2R,3S,4R)-4-({2-[(cyclohexylmethyl)amino]pyrimidin-4-yl}amino)-2,3-dihydroxycyclopentyl]methyl sulfamate], the IC50 by setting is: (bound given in nM) > 500 nM; (bound given in μM) < 10000 nM.

Consider `NS(=O)(=O)OC[C@@H]1C[C@@H](Oc2cc(-c3ccccc3)ncn2)C[C@@H]1O` [Compound I-114, {(1S,2S,4R)-2-hydroxy-4-[(6-phenylpyrimidin-4-yl)oxy]cyclopentyl}methyl sulfamate], for which the IC50 by setting is: (bound given in nM) > 500 nM; (bound given in μM) < 10000 nM.
